# Laboratory results published in patent US20110039770A1, “INHIBITORS OF PROTEIN KINASE C ISOFORMS AND USES THEREOF” (PHARMAGAP INC., priority 2005, published 2011).
# Experiments:
# Assay in all cases: Tetracycline-induced expression of TIM 17 in IMR32 cells, PKC isoform level
# Type in all cases: cell-based
# PKC-α = PKC-α (Homo sapiens, UniProt P17252); parameters: endogenous PKC-α in (A) untreated human neuroblastoma (IMR-32) cells; endogenous in cells; host or cells: IMR-32 human neuroblastoma cells; details: TIM 17 transfected cells + 150 ng/ml tetracycline 48 h; flow cytometry
# Method: (§1) The specificity and efficacy of compound TIM 17 (see Table 28) was tested intracellularly on 3 PKC isoforms (α, δ and ε), which are the main isoforms expressed in the IMR32 neuroblastoma cell lines and neuroblastoma biopsies.
# (§2) The synthetic TIM 17 gene was subcloned into the pREx-DEST31(7559) expression vector and transfected into IMR32 neuroblastoma cells using standard techniques. Transcription of the TIM 17 gene is under the control of a tetracycline promoter that allows gene expression to be switched on and off. Expression of the TIM 17 gene was elicited by treatment with 150 ng/ml of tetracycline for 48 h.
# The data were acquired from 20,000 to 50,000 individual cells. The graph scales report the number of events measured at the peak of fluorescence while the percentage of cells positive to the specific anti-PKCalpha antibody is shown on the graphs together with the relative intensity (see number provided below the percentage). The relative intensity correlates to the mean intracellular level of PKCalpha in the cell population.
# The expression level of PKC-α, δ and ε was also assessed by fluorescence imaging using anti-PKC antibodies from SantaCruz and secondary Alexa 488 conjugate from Invitrogen. Microscopic images were obtained from a Coulter microscope equipped with epifluorescence and the images analyzed with ImagePro+ software with the assistance of DAGE-MTI camera. […]
# PKC delta = PKC delta (Homo sapiens, UniProt Q05655); parameters: endogenous in cells; details: fluorescence imaging; confirmed by Western blot
# Method: as §1, §2
# (§3) The expression level of PKC-α, δ and ε was also assessed by fluorescence imaging using anti-PKC antibodies from SantaCruz and secondary Alexa 488 conjugate from Invitrogen. Microscopic images were obtained from a Coulter microscope equipped with epifluorescence and the images analyzed with ImagePro+ software with the assistance of DAGE-MTI camera. The same gating was maintained constant for all images. […] The above results were also confirmed by Western blot.
# PKC epsilon = target: T1, PKC epsilon (Homo sapiens, UniProt Q02156); parameters: endogenous in cells; details: fluorescence imaging; confirmed by Western blot
# T1 sequence (Q02156 1-737): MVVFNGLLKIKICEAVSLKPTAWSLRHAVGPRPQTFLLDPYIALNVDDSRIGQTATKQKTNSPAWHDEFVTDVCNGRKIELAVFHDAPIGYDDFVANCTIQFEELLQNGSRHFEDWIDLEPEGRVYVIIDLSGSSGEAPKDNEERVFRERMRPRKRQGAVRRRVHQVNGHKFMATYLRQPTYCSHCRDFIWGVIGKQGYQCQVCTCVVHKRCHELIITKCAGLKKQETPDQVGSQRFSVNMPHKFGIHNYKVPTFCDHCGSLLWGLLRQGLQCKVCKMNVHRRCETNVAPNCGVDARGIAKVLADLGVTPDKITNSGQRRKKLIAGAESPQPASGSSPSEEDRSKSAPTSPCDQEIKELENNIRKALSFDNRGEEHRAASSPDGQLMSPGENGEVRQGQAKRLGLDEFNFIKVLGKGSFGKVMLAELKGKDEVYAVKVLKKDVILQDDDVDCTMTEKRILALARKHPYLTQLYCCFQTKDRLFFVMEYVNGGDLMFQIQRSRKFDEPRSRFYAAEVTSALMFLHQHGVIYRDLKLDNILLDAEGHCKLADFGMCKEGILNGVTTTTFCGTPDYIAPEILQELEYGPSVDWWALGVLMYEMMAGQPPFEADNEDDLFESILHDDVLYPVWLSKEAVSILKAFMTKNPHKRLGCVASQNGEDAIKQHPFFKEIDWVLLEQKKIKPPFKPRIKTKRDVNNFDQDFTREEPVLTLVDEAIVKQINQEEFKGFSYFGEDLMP
# Method: as §1, §2, §3
# Chain of PKC delta (Q05655 whole entry): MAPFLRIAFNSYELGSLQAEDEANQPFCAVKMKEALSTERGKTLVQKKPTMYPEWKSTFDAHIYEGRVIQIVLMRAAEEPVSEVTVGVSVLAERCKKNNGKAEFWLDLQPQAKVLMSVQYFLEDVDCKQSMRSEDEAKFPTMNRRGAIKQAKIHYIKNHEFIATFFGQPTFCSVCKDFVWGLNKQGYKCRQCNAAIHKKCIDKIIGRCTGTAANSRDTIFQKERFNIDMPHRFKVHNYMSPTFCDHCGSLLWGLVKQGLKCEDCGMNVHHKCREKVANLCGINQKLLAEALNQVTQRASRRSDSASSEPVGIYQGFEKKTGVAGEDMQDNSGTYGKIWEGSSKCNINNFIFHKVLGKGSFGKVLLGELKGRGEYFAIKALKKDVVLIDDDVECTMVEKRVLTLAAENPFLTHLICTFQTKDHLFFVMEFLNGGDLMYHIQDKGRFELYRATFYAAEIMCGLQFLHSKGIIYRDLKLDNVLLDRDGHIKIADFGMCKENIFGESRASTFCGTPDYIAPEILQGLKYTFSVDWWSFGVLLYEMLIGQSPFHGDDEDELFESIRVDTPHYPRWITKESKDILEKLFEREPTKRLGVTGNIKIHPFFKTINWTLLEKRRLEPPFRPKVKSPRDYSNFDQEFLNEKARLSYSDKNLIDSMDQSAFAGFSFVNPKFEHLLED
substance,measurement,setting,value
FRRKFRL—(G)7—KDAQNLIGISI [TIM 17],percentage of cells expressing similar levels of PKCalpha as controls,PKC-α,30%
same,percentage of population with dramatic decrease in PKC alpha cellular content,PKC-α,69.8%
same,intracellular level of PKC delta,PKC delta,"did not, however, alter the intracellular level"
same,intracellular level of PKC epsilon,PKC epsilon,"did not, however, alter the intracellular level"
